According to patent US7572890B2, “Recombinant human mannan-building proteins” (Fuso Pharmaceutical Industries, Ltd., priority 1998, dated 2009):
Where two headings read alike, the source gives them in different places.

Tests used:
[1] = molecular target: T1, native hMBP (Homo sapiens, UniProt P11226); assay: Sugar inhibition of native hMBP binding to mannan (ELISA)
T1 construct: samples of stepwise dilution of the native hMBP, rhMBP (cultured with vitamin C), rhMBP (cultured without vitamin C)

[2] = molecular target: T2, rhMBP (with Vitamin C) (Homo sapiens, UniProt P11226); assay: Sugar inhibition of rhMBP (cultured with vitamin C) binding to mannan (ELISA)
T2 construct: made in house; host or cells: CHO DG44 (dhfr-), neomycin/MTX-resistant clones; purified from culture supernatant on mannan-agarose
T2 sequence (P11226 21-248): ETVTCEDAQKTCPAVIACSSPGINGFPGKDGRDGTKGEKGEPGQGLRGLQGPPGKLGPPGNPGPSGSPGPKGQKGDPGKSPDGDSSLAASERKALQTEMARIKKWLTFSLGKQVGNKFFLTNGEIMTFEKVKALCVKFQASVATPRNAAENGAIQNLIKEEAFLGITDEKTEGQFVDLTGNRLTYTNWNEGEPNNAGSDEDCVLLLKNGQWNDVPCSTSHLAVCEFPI

[3] = molecular target: T3, rhMBP (without Vitamin C) (Homo sapiens, UniProt P11226); assay: Sugar inhibition of rhMBP (cultured without vitamin C) binding to mannan (ELISA)
T3 construct: made in house; host or cells: CHO DG44 (dhfr-), neomycin/MTX-resistant clones; purified from culture supernatant on mannan-agarose
T3 sequence (P11226 21-248): as above

[4] = tested on: Influenza A virus A/Ibaraki/l/90 (H3N2); assay: Hemagglutination Inhibition (HI) activities; format: cell-based; details: for Minimum Protein Concentration for HI Activities: 16HAU virus, chicken erythrocytes
[5] = Sugar binding activity of MBP on mannan-coated plates (ELISA); details: Table 1
Description: Microtiter Plates were treated with 100 μl of coating buffer (15 mM sodium carbonate, 35 mM sodium hydrogen carbonate, 0.05% sodium azide, pH 9.6) containing mannan (10 μg/ml:SIGMA) at 4° C. overnight. After each treatment step, the plates were washed three times with TBSNTC solution (TBS, 0.05% sodium azide, 0.05% TWEEN 20 (Registered Trade Mark), 5 mM calcium chloride). After completing the coating of the plates, the plates were treated and blocked with BLOCKACE™ blocking solution (Dainippon Pharmaceutical) at room temperature for one hour.
After washing them, samples of stepwise dilution of the native hMBP, rhMBP (cultured with vitamin C), rhMBP (cultured without vitamin C) having the concentration of 200, 100, 50, 25, 12.5, 6.25 ng/ml, combination samples of 200 ng/ml of each hMBP with EDTA added to be its concentration of 10 mM, and combination samples of 50 ng/ml of each hMBP with mannose added to be its concentration of 100 mM were prepared, thereafter, 100 μl of each of them were poured into each well and were incubated at 37° C. for one hour. […] After incubating them at room temperature for 30 minutes, 100 μl of 1M phosphoric acid were added thereto, and their absorbance were measured at 450 nm (Model 450 Microplate Reader; Bio-Rad). […]

[6] = tested on: Influenza A virus A/Ibaraki/l/90; assay: Neutralization activities (focus reduction on MDCK cells); format: cell-based
[7] = tested on: HIV-1 (HIV-gp120, HIV-gp160); assay: Binding of rhMBP to blotted viral structural proteins: HIV-1; details: rhMBP 1.0 μg/ml; FIG. 20
Description: (§1) Binding activities on rhMBP to HIV-1, HBV and Influenza A virus were determined by electrophoresing the following viral structural proteins, transferring them to membranes, binding thereto rhMBP and detecting them with labeled antibody.
(§2) Necessary amounts of viral structural proteins for the electrophoresis were 0.25 μg of HIV-gp120 (HIVIIIB-gp120) (ADVANCED BIOTECHNOLOGIES INCORPORATED (ABI)), 0.25 μg of HIV-gp160 (HIVIIIB-gp160) (ABI), 10 μg of HBS (Hepatitis B Surface Antigen (HBsAg) (ABI), Subtype ad), Influenza A virus (IAV; presented by The Research Foundation For Osaka University Research Institute for Microbial Diseases), 5 μg of H1N1 Yamagata virion and 5 μg of H3N2 Beijin virion.
(§3) SDS-PAGE employed polyacrylamide gel having the concentration gradient of 4˜20%, and HIV-1 and HBS were electrophoresed under reducing condition. After the electrophoresis, they were transferred to Immobilon-P^SQ transfer membrane (Millipore) with NOVA BLOT™ electrophoretic transfer unit (Pharmacia) by using semi-dry electroblot buffer kit (Owl Scientific). After such transfer, they were blocked with BLOCKACE™ blocking solution (Dainippon Pharmaceutical) at room temperature for one hour. […]

[8] = tested on: HBV (Hepatitis B Surface Antigen); assay: Binding of rhMBP to blotted viral structural proteins: HBV; details: rhMBP 1.0 μg/ml; FIG. 20
Description: as §1, §2, §3

[9] = tested on: Influenza A virus (H1N1 Yamagata virion, H3N2 Beijin virion); assay: Binding of rhMBP to blotted viral structural proteins: Influenza A virus; details: rhMBP 1.0 μg/ml; FIG. 20
Description: as §1, §2, §3

[10] = tested on: Influenza A virus A/Ibaraki/1/90; format: cell-based; details: 0.5 and 1 μg/ml, three days; FIG. 21
[11] = tested on: guinea pig complement; assay: Complement activation: hemolysis of mannan-sensitized sheep erythrocyte
[12] = native hMBP, mannan-coated microtiter plates, read-out: I 50: Sugar concentration to halve binding activities with mannan
[13] = rhMBP (with Vitamin C), mannan-coated microtiter plates, read-out: I 50: Sugar concentration to halve binding activities with mannan
[14] = rhMBP (without Vitamin C), mannan-coated microtiter plates, read-out: I 50: Sugar concentration to halve binding activities with mannan

T1 sequence (P11226 21-248): as above

Row | Compound | IC50 [1, 12] [mM] | IC50 [2, 13] [mM] | IC50 [3, 14] [mM] | other results
1 | C[C@@H](O)[C@H](O)[C@H](O)[C@@H](O)C=O [D-Fucose] | 33.5 | 39.1 | 86.7 | –
2 | O=C[C@@H](O)[C@@H](O)[C@H](O)[C@H](O)CO [D-Mannose] | – | – | – | IC50 [1]: 3.7 mM; IC50 [2]: 6.7 mM; IC50 [3]: 6.8 mM
3 | O=C[C@H](O)[C@@H](O)[C@@H](O)[C@H](O)CO [Galactose] | – | – | – | IC50 [1]: 24.2 mM; IC50 [2]: 29.8 mM; IC50 [3]: 36.7 mM
4 | C[C@H](O)[C@@H](O)[C@@H](O)[C@H](O)C=O [L-Fucose] | 4.2 | 4.4 | 8.7 | –
5 | OC[C@H]1O[C@@H](O[C@H]2[C@H](O)[C@@H](O)C(O)O[C@@H]2CO)[C@H](O)[C@@H](O)[C@H]1O (stereo partly shown) [Lactose] | 36 | 46.6 | 59.4 | –
6 | OC[C@H]1O[C@H](O[C@H]2[C@H](O)[C@@H](O)[C@H](O)O[C@@H]2CO)[C@H](O)[C@@H](O)[C@@H]1O [Maltose] | 7.4 | 6.4 | 7.4 | –
7 | CC(=O)N[C@H]1C(O)O[C@H](CO)[C@H](O)[C@@H]1O (stereo partly drawn) [N-Acetyl-D-Galactosamine] | > 100 | > 100 | > 100 | –
8 | CC(=O)N[C@H]1C(O)O[C@H](CO)[C@@H](O)[C@@H]1O (stereo partly drawn) [N-Acetyl-D-Glucosamine] | 2.7 | 3.6 | 3.8 | –
9 | CC(=O)N[C@@H]1C(O)O[C@H](CO)[C@@H](O)[C@@H]1O (stereo partly drawn) [N-Acetyl-D-Mannosamine] | 4.4 | 6.9 | 6.9 | –
10 | native hMBP: natural Human Mannan-Binding Protein, used as comparator | – | – | – | Minimum Protein Concentration for HI Activities [4]: 40 ng/mL
11 | rhMBP (with Vitamin C): rhMBP from CHO clone cultured in medium with vitamin C added | – | – | – | Minimum Protein Concentration for HI Activities [4]: 80 ng/mL
12 | rhMBP (without Vitamin C): rhMBP from CHO clone cultured in medium without vitamin C | – | – | – | Minimum Protein Concentration for HI Activities [4]: 80 ng/mL
13 | rhMBP: recombinant human Mannan-Binding Protein expressed from pNOW1-hMBP in dhfr- CHO cells, purified on mannan-agarose | – | – | – | Sugar binding specificities compared with native hMBP [5]: substantially identical to those by the native hMBP; Hemagglutination Inhibition (HI) activities compared with native hMBP ([4]; Table 2 and FIG. 18): not inferior to that by native hMBP; Neutralization activities on addition of mannose ([6]; 100 mM mannose): inhibited by addition of mannose; Neutralization activities for influenza virus (reduction rate of FFU) ([6]; FIG. 19, MDCK cells): had neutralization activities for influenza virus; Binding activities to HIV-1 [7]: have binding activities; Binding activities to HBV [8]: have binding activities; Binding activities to Influenza A virus [9]: have binding activities; Viral growth inhibition (gross area of virus-infected focus) [10]: reduced focus area infected by influenza viruses concentration-dependently; Hemolysis of sensitized sheep erythrocyte (complement activation) ([11]; 1, 10, 100 and 1000 ng/tube, FIG. 22): hemolyzed concentration-dependently sensitized sheep erythrocyte substantially like the native hMBP; Complement activation on addition of mannose ([11]; mannose added): suppressed by an addition of mannose
